Measured values reported in patent US6936283B2, “Composition for stimulation of specific metallo-enzymes” (priority 2003, dated 2005).

Legend:
[1] = target: liver alcohol dehydrogenase (LADH); settings: inhibit the activity of LADH enzyme, ref [1]; given in words only; cited from earlier work
healthy individuals = assay: Alcohol metabolism in test persons after vodka, alcohol level measured with CA 2000 Digital Alcohol Detector every 30 minutes; type: in vivo, human; settings: from comparing the fructose-containing and fructose-free compositions
Procedure: The study presented in Table 2 and 3 included 10 individuals (6 males and 4 females, 24-57 years old).
In the first study (Table 2A) the test persons were given 8 oz. (ca.2.4 dl) of vodka mixed with 6 dl Sprite (The Coca Cola Company). The alcohol was consumed within one hour. 45 minutes after alcohol consumption each person drank 500 ml water. The alcohol level was then measured as described under.
One week later, the same test persons were given the same amount of vodka and Sprite. 45 minutes after alcohol consumption each test person drank 500 ml of the composition of the present invention. The alcohol level was then measured as described under.
Both part of the second study (Table 2 B) was performed in the same way as described for the study presented […], with the exception that the test persons were given a 500 ml solution containing 90 g fructose, 90 mg caffeine and 500 mg vitamin C instead of the composition of the present invention. The alcohol level was again measured as described below.
The alcohol level (measured in 0/00) was measured with a CA 2000 Digital Alcohol Detector once every 30 minutes in each experiment. Each value is an average of four parallel measurements.

Row | SMILES | Ki [1] | contribution to the acceleration of alcohol degradation (healthy individuals)
1 | CC(=O)N[C@@H](CS)C(=O)O [acetylcysteine] | in the uM-mM area | 
2 | N[C@@H](CS)C(=O)O [cysteine] | in the uM-mM area | 
3 | O=C(CO)[C@@H](O)[C@H](O)[C@H](O)CO [fructose] |  | 20-25%
4 | N[C@@H](CCC(=O)N[C@@H](CS)C(=O)NCC(=O)O)C(=O)O [glutathione] | in the uM-mM area | 
5 | CSCC[C@H](N)C(=O)O [methionine] | in the uM-mM area | 
